Laboratory results from US20250320206A1, “STAT6 DEGRADERS” (Gilead Sciences, Inc., priority 2024, published 2025).

What was measured:
STAT6 = molecular target: T1, STAT6 (Homo sapiens, UniProt P42226); assay: Stat6 Degrader Assay (HiBiT based, HeLa LgBiT clone 4.14); assay type: cell-based; conditions: HeLa LgBiT clone 4.14 HiBiT-STAT6, 4-24 h incubation; values given for compounds with >80% Emax; geometric mean; read-out: STAT6 degradation DC50
T1 construct: These cells express endogenous STAT6; host or cells: HeLa LgBiT clone 4.14
T1 sequence (P42226 1-847): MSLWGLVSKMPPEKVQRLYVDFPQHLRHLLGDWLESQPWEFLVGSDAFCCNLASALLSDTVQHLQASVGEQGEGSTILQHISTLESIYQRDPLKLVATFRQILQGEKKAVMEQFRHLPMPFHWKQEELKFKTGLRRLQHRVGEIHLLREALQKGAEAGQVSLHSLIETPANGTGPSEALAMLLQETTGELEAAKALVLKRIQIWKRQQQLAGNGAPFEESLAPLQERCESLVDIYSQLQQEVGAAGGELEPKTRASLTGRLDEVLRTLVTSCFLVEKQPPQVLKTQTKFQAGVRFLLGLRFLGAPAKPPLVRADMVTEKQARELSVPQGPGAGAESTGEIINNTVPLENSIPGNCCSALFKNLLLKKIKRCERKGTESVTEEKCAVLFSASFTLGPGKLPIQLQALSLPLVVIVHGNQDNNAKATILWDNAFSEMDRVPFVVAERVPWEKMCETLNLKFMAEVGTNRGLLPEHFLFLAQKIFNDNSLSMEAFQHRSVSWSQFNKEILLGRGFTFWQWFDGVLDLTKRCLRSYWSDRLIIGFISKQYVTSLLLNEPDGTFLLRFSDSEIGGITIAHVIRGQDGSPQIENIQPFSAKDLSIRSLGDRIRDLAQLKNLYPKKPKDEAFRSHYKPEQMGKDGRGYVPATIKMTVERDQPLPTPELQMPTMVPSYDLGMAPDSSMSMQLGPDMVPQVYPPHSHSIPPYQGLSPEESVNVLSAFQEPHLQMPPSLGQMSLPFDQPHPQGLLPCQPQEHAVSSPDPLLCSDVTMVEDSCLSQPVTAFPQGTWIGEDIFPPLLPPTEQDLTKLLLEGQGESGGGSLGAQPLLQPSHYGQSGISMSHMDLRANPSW
Method in brief: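 Luminescence from HiBiT-STAT6 complementing stably expressed LgBiT in HeLa clone 4.14 reports remaining STAT6 protein. Cells (5000/well) exposed to compound for 4-24 h at 37° C; read 0.5 h after Nano-Glo addition. 100% degradation window set with 50 μM terfenadine; percent degradation plotted against concentration.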

[1] = test system: Eotaxin-3 release in human whole blood stimulated with IL-4; assay: Human Whole Blood Eotaxin-3 Assay (IL-4 stimulated eotaxin-3 release); assay type: cell-based; conditions: IL-4 stimulation, 48 h, values given for compounds with >80% Emax, geometric mean
Method in brief: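 Eotaxin-3 (CCL26) release measured by MSD kit in plasma supernatant after 48 h IL-4 stimulation ([…]) of human whole blood. Compounds added in triplicate 4-fold dilutions 2 h before stimulation; 0.5% DMSO final, 37° C, 5% CO2.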

| Structure (SMILES) | DC50 (STAT6) | EC50 [1] |
| --- | --- | --- |
| CNc1ccn(-c2ccnc3c2cc([C@H](C)N2CC=C(c4c(F)cc(C(=O)N5CCC(CN6CCN(Cc7ccc8c(c7)C(C)(C)C(=O)N8[C@H]7CCC(=O)NC7=O)C[C@@H]6C)CC5)cc4F)CC2)n3C)c(=O)c1 (single isomer, unassigned) [Example 3u202] | 1.9 nM | 2.6 nM |
| Cc1cc(C(=O)N(C)c2ccc(C3CCN(Cc4ccc5c(c4)n(C)c(=O)n5C4CCC(=O)NC4=O)CC3)cc2)cc(F)c1C1=CCN([C@@H](C)c2cc3c(-n4ccc5c(c4=O)CCN5)ccnc3n2C)CC1 (stereo partly drawn) [Example 3u250, N-(4-(1-((1-(2,6-dioxopiperidin-3-yl)-3-methyl-2-oxo-2,3-dihydro-1H-benzo[d]imidazol-5-yl)methyl)piperidin-4-yl)phenyl)-3-fluoro-N,5-dimethyl-4-(1-((S)-1-(1-methyl-4-(4-oxo-1,2,3,4-tetrahydro-5H-pyrrolo[3,2-c]pyridin-5-yl)-1H-pyrrolo[2,3-b]pyridin-2-yl)ethyl)-1,2,3,6-tetrahydropyridin-4-yl)benzamide] | 0.1 nM | 0.4 nM |
| CNc1ccn(-c2ccnc3c2cc([C@H](C)N2CCC(c4c(C)cc(C(=O)N5CCC(CN6CCN(Cc7ccc8c(c7)n(C7CC7)c(=O)n8C7CCC(=O)NC7=O)C[C@@H]6C)CC5)cc4F)CC2)n3C)c(=O)c1 (stereo partly drawn) [Example 3u197, 3-(3-cyclopropyl-5-(((S)-4-((1-(3-fluoro-5-methyl-4-(1-((S)-1-(1-methyl-4-(4-(methyl-amino)-2-oxopyridin-1 (2H)-yl)-1H-pyrrolo[2,3-b]pyridin-2-yl)ethyl)piperidin-4-yl)benzoyl)piperidin-4-yl)methyl)-3-methylpiperazin-1-yl)methyl)-2-oxo-2,3-dihydro-1H-benzo[d]imidazol-1-yl)piperidine-2,6-dione] | 1.2 nM | 2.7 nM |
| CNc1cc(=O)n(-c2ccnc3c2cc([C@H](C)N2CC=C(c4c(C)cc(C(=O)N5CCC(CN6CCN(Cc7ccc8c(c7)n(C7CC7)c(=O)n8[C@H]7CCC(=O)NC7=O)C[C@@H]6C)CC5)cc4F)CC2)n3C)cc1F (single isomer, unassigned) [Example 3u119] | 2.1 nM | 2.2 nM |
| CNc1ccn(-c2ccnc3c2cc([C@H](C)N2CC=C(c4c(C)cc(C(=O)N5CCC(CN6CCN(c7ccc8c(c7)n(C)c(=O)n8[C@@H]7CCC(=O)NC7=O)CC6)CC5)cc4F)CC2)n3C)c(=O)c1 (single isomer, unassigned) [Example 3u294] | 0.8 nM | 0.3 nM |
| CNc1ccn(-c2ccnc3c2cc(CN2CCC(c4c(F)cc(C(=O)N5CCC(CN6CCN(Cc7ccc8c(c7)n(C)c(=O)n8[C@@H]7CCC(=O)NC7=O)CC6)CC5)cc4F)CC2)n3C)c(=O)c1 (single isomer, unassigned) [Example 3u31] | 2.4 nM | 2 nM |
| CNc1ccn(-c2ccnc3c2cc([C@H](C)N2CC=C(c4c(F)cc(C(=O)N5CCC(CN6CCN(Cc7ccc8c(c7)C(C)(C)C(=O)N8C7CCC(=O)NC7=O)C[C@@H]6C)CC5)cc4F)CC2)n3C)c(=O)c1 (stereo partly drawn) [Example 3u201, 3-(5-(((S)-4-((1-(3,5-difluoro-4-(1-((S)-1-(1-methyl-4-(4-(methylamino)-2-oxopyridin-1 (2H)-yl)-1H-pyrrolo[2,3-b]pyridin-2-yl)ethyl)-1,2,3,6-tetrahydropyridin-4-yl)benzoyl)piperidin-4-yl)-methyl)-3-methylpiperazin-1-yl)methyl)-3,3-dimethyl-2-oxoindolin-1-yl)piperidine-2,6-dione] | 1.3 nM | 3.8 nM |

Continued by falling DC50 (STAT6), values first:

| DC50 (STAT6) | EC50 [1] | Structure (SMILES) |
| --- | --- | --- |
| 21.7 nM | 37.1 nM | CNc1cc(=O)n(-c2ccnc3c2cc([C@H](C)N2CC=C(c4c(C)cc(C(=O)N5CCC(CN6CCN(c7ccc8c(c7)C(C)(C)C(=O)N8C7CCC(=O)NC7=O)CC6)CC5)cc4F)CC2)n3C)cc1F (stereo partly drawn) [Example 3u303, 3-(5-(4-((1-(3-fluoro-4-(1-((S)-1-(4-(5-fluoro-4-(methylamino)-2-oxopyridin-1 (2H)-yl)-1-methyl-1H-pyrrolo[2,3-b]pyridin-2-yl)ethyl)-1,2,3,6-tetrahydropyridin-4-yl)-5-methylbenzoyl)piperidin-4-yl)methyl)piperazin-1-yl)-3,3-dimethyl-2-oxoindolin-1-yl)piperidine-2,6-dione] |
| 12.8 nM | 52.6 nM | CNc1ccn(-c2ccnc3c2cc(CN2CCC(c4c(C)cc(C(=O)N5CCC(CN6CCN(Cc7ccc8c(c7)n(C)c(=O)n8[C@@H]7CCC(=O)NC7=O)CC6)CC5)cc4F)CC2)n3C)c(=O)c1 (single isomer, unassigned) [Example 3u159] |
| 8.5 nM | 9.1 nM | CNc1ccn(-c2ccnc3c2cc(CN2CCC(c4c(F)cc(C(=O)N5CCC(CN6CCN(Cc7cc8c(cc7F)N([C@H]7CCC(=O)NC7=O)C(=O)C87CC7)CC6)CC5)cc4F)CC2)n3C)c(=O)c1 (single isomer, unassigned) [Example 3u43] |
| 3.4 nM | 4.1 nM | C[C@H]1CN(Cc2ccc3c(c2)n(C2CC2)c(=O)n3[C@@H]2CCC(=O)NC2=O)CCN1CC1CCN(C(=O)c2cc(F)c(C3CCN(Cc4cc5c(-n6ccc7c(c6=O)CCN7)ccnc5n4C)CC3)c(F)c2)CC1 (single isomer, unassigned) [Example 3u108] |
| 3 nM | 5.9 nM | CNc1ccn(-c2ccnc3c2cc(CN2CCC(c4c(F)cc(C(=O)N5CCC(CN6CCN(Cc7ccc8c(c7)C(C)(C)C(=O)N8[C@H]7CCC(=O)NC7=O)C[C@@H]6C)CC5)cc4F)CC2)n3C)c(=O)c1 (single isomer, unassigned) [Example 3u205] |
| 2.5 nM | 0.8 nM | CNc1ccn(-c2ccnc3c2cc([C@H](C)N2CC=C(c4c(C)cc(C(=O)N5CCC(CN6CCN(c7cc8c(cc7F)n(C7CCC(=O)NC7=O)c(=O)n8C)CC6)CC5)cc4F)CC2)n3C)c(=O)n1 (stereo partly drawn) [Example 3u256, 3-(6-fluoro-5-(4-((1-(3-fluoro-5-methyl-4-(1-((S)-1-(1-methyl-4-(4-(methylamino)-2-oxopyrimidin-1 (2H)-yl)-1H-pyrrolo[2,3-b]pyridin-2-yl)ethyl)-1,2,3,6-tetrahydropyridin-4-yl)benzoyl)piperidin-4-yl)methyl)piperazin-1-yl)-3-methyl-2-oxo-2,3-dihydro-1H-benzo[d]imidazol-1-yl)piperidine-2,6-dione] |
| 2.3 nM | 9.8 nM | CNc1ccn(-c2ccnc3c2cc([C@H](C)N2CC=C(c4c(C)cc(C(=O)N5CCC(CN6CCN(Cc7ccc8c(c7)C(C)(C)C(=O)N8[C@H]7CCC(=O)NC7=O)C[C@@H]6C)CC5)cc4F)CC2)n3C)c(=O)c1 (single isomer, unassigned) [Example 3u176] |
| 1.3 nM | 1.5 nM | CNc1cc(=O)n(-c2ccnc3c2cc([C@H](C)N2CCC(c4ccc(C(=O)N5CCC(CN6CCN(Cc7ccc8c(c7)C7(CC7)C(=O)N8[C@@H]7CCC(=O)NC7=O)C[C@@H]6C)CC5)cc4)CC2)n3C)cc1F (single isomer, unassigned) [Example 3u38] |
| 1 nM | 0.8 nM | CNc1ccn(-c2ccnc3c2cc([C@H](C)N2CCC(c4ccc(C(=O)N5CCC(CN6CCN(Cc7ccc8c(c7)C7(CC7)C(=O)N8C7CCC(=O)NC7=O)C[C@@H]6C)CC5)cc4)CC2)n3C)c(=O)c1 (mixture of isomers) [Example 3u5, 3-(5′-(((S)-3-methyl-4-((1-(4-(1-((S)-1-(1-methyl-4-(4-(methylamino)-2-oxopyridin-1 (2H)-yl)-1H-pyrrolo[2,3-b]pyridin-2-yl)ethyl)piperidin-4-yl)benzoyl)piperidin-4-yl)methyl)piperazin-1-yl)-methyl)-2′-oxospiro[cyclopropane-1,3′-indolin]-1′-yl)piperidine-2,6-dione] |
| 0.6 nM | 1.1 nM | Cc1cc(C(=O)N2CCC(CN3CCN(Cc4cc5c(cc4F)n(C4CCC(=O)NC4=O)c(=O)n5C)CC3)CC2)cc(F)c1C1=CCN([C@@H](C)c2cc3c(-n4ccc5c(c4=O)CCN5)ccnc3n2C)CC1 (stereo partly drawn) [Example 3u74, 3-(6-fluoro-5-((4-((1-(3-fluoro-5-methyl-4-(1-((S)-1-(1-methyl-4-(4-oxo-1,2,3,4-tetrahydro-5H-pyrrolo[3,2-c]pyridin-5-yl)-1H-pyrrolo[2,3-b]pyridin-2-yl)ethyl)-1,2,3,6-tetrahydro-pyridin-4-yl)benzoyl)piperidin-4-yl)methyl)piperazin-1-yl)methyl)-3-methyl-2-oxo-2,3-dihydro-1H-benzo[d]imidazol-1-yl)piperidine-2,6-dione] |
